From US9474790B2, “Stable, protracted GLP-1/glucagon receptor co-agonists for medical use” (Novo Nordisk A/S, priority 2013, dated 2016)
Numbered stars: 1 amine (or outer) side, 2 acyl side, 3 side chain; on linkers, the order of the positions; unused ones are H or OH. Square brackets hold non-standard residues; d marks the D form. Side chains are listed from the residue outwards. Peptide text beside a SMILES is read from it. * marks the point of attachment. C18 diacid = O=C(O)CCCCCCCCCCCCCCCCC(=O)*; γGlu = O=C(O)[C@H](CCC(=O)[*:2])N[*:1]; Ac4c = NC1(C(=O)O)CCC1; AEEA = NCCOCCOCC(=O)O; Aib = CC(C)(N)C(=O)O

How the values were obtained:
[1] = Chemical stability assessment by RP-UPLC; assay type: physicochemical; settings: 333 μM, 8 mM phosphate buffer pH 7.3, 37° C. vs 5° C.
In short: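 Purity loss = (purity after 14 days at 5° C. minus that at 37° C.) relative to the 5° C. value, purity being main-peak area % by RP-UPLC with UV at 215 nm. Samples were 333 μM in 8 mM phosphate, pH 7.3; gradient adjusted for outlying retention times.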

human GLP-1 receptor = target: T1, human GLP-1 receptor (Homo sapiens, UniProt P43220); test: GLP-1 receptor binding, 125I-GLP-1 displacement SPA on isolated membranes; settings: displacement of 125I-GLP-1 from membranes; read-out: IC50 GLP-1R
T1 construct: expressed in transfected cells; host or cells: BHK cells (parent BHKTS13), clone FCW467-12A/KZ10-1, with CRE luciferase
In short: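 Test derivatives, serially diluted, competed with 125I-GLP-1(7-36)NH2 for the human GLP-1 receptor on BHK membranes, read by WGA-bead scintillation proximity after 2 h at 30°C, pH 7.4 HEPES/EGTA/MgCl2 buffer. Final serum albumin was either ≤0.001% or 2.0%; IC50 from non-linear fit.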

T1 sequence (P43220 24-463): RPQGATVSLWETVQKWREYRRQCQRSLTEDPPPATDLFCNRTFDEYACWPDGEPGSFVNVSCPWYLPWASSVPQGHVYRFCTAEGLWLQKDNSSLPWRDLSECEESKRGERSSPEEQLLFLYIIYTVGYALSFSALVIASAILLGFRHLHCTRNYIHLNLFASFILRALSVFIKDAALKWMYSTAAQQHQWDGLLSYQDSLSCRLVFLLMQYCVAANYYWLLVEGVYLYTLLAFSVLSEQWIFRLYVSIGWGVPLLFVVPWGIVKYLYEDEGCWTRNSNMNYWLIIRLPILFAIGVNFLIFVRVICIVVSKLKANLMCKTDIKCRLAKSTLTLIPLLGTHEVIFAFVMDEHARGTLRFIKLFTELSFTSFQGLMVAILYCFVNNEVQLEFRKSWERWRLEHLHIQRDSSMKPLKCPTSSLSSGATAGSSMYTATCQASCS

Row | Structure (SMILES) | Purity loss; 14 days at 37° C. [1] [%] | IC50 (human GLP-1 receptor) [nM]
1 | CC(C)C[C@H](NC(=O)[C@H](Cc1ccc(O)cc1)NC(=O)[C@H](CCCCN)NC(=O)[C@H](CO)NC(=O)[C@H](CC(C)C)NC(=O)[C@H](CC(=O)O)NC(=O)[C@H](CO)NC(=O)[C@@H](NC(=O)[C@H](Cc1ccccc1)NC(=O)[C@@H](NC(=O)CNC(=O)[C@H](CCC(N)=O)NC(=O)C(C)(C)NC(=O)[C@@H](N)Cc1c[nH]cn1)[C@@H](C)O)[C@@H](C)O)C(=O)N[C@@H](CCC(=O)O)C(=O)N[C@@H](CO)C(=O)N[C@@H](CCCNC(=N)N)C(=O)N[C@@H](CCCNC(=N)N)C(=O)N[C@@H](C)C(=O)N[C@@H](CCCNC(=N)N)C(=O)N[C@@H](CCC(=O)O)C(=O)N[C@@H](Cc1ccccc1)C(=O)N[C@H](C(=O)N[C@@H](CCC(N)=O)C(=O)N[C@@H](Cc1c[nH]c2ccccc12)C(=O)N[C@@H](CC(C)C)C(=O)N[C@@H](CC(C)C)C(=O)N[C@@H](CCCCNC(=O)COCCOCCNC(=O)COCCOCCNC(=O)CC[C@H](NC(=O)CC[C@H](NC(=O)CC[C@H](NC(=O)CCCCCCCCCCCCCCCCC(=O)O)C(=O)O)C(=O)O)C(=O)O)C(=O)N[C@H](C(N)=O)[C@@H](C)O)C(C)C [Example 42, N^ε28-[2-[2-[2-[[2-[2-[2-[[(4S)-4-carboxy-4-[[(4S)-4-carboxy-4-[[(4S)-4-carboxy-4-(17-carboxyheptadecanoylamino)butanoyl]amino]butanoyl]amino]butanoyl]amino]ethoxy]ethoxy]acetyl]amino]ethoxy]ethoxy]acetyl]-[Aib2,Leu10,Glu15,Arg20,Glu21,Leu27,Lys28]-Glucagon amide] (H-H[Aib]QGTFTSDLSKYLESRRAREFVQWLLK([AEEA-AEEA-γGlu-γGlu-γGlu-C18 diacid])T-NH2; N-terminus assumed) | 3 | 0.3
2 | CC(C)C[C@H](NC(=O)[C@H](Cc1ccc(O)cc1)NC(=O)[C@H](CCCCN)NC(=O)[C@H](CO)NC(=O)[C@H](CC(C)C)NC(=O)[C@H](CC(=O)O)NC(=O)[C@H](CO)NC(=O)[C@@H](NC(=O)[C@H](Cc1ccccc1)NC(=O)[C@@H](NC(=O)CNC(=O)[C@H](CCC(N)=O)NC(=O)C(C)(C)NC(=O)[C@@H](N)Cc1c[nH]cn1)[C@@H](C)O)[C@@H](C)O)C(=O)N[C@@H](CC(=O)O)C(=O)N[C@@H](C)C(=O)N[C@@H](CCCNC(=N)N)C(=O)N[C@@H](CCCNC(=N)N)C(=O)N[C@@H](C)C(=O)N[C@@H](CCCNC(=N)N)C(=O)N[C@@H](CCC(=O)O)C(=O)N[C@@H](Cc1ccccc1)C(=O)N[C@H](C(=O)N[C@@H](CCC(N)=O)C(=O)N[C@@H](Cc1c[nH]c2ccccc12)C(=O)N[C@@H](CC(C)C)C(=O)N[C@@H](CC(C)C)C(=O)N[C@@H](CCCCNC(=O)CC[C@H](NC(=O)CC[C@H](NC(=O)COCCOCCNC(=O)COCCOCCNC(=O)CC[C@H](NC(=O)CCCCCCCCCCCCCCCCC(=O)O)C(=O)O)C(=O)O)C(=O)O)C(=O)N[C@H](C(N)=O)[C@@H](C)O)C(C)C [Example 43, N^ε28-[(4S)-4-carboxy-4-[[(4S)-4-carboxy-4-[[2-[2-[2-[[2-[2-[2-[[(4S)-4-carboxy-4-(17-carboxyheptadecanoylamino)butanoyl]amino]ethoxy]ethoxy]acetyl]amino]ethoxy]ethoxy]acetyl]amino]butanoyl]amino]butanoyl]-[Aib2,Leu10,Ala16,Arg20,Glu21,Leu27,Lys28]-Glucagon amide] (H-H[Aib]QGTFTSDLSKYLDARRAREFVQWLLK([γGlu-γGlu-AEEA-AEEA-γGlu-C18 diacid])T-NH2; N-terminus assumed) | 2 | 0.3
3 | CC(C)C[C@H](NC(=O)[C@H](Cc1ccc(O)cc1)NC(=O)[C@H](CCCCN)NC(=O)[C@H](CO)NC(=O)[C@H](CC(C)C)NC(=O)[C@H](CC(=O)O)NC(=O)[C@H](CO)NC(=O)[C@@H](NC(=O)[C@H](Cc1ccccc1)NC(=O)[C@@H](NC(=O)CNC(=O)[C@H](CCC(N)=O)NC(=O)C1(NC(=O)[C@@H](N)Cc2c[nH]cn2)CCC1)[C@@H](C)O)[C@@H](C)O)C(=O)N[C@@H](CCC(=O)O)C(=O)N[C@@H](CO)C(=O)N[C@@H](CCCNC(=N)N)C(=O)N[C@@H](CCCNC(=N)N)C(=O)N[C@@H](C)C(=O)N[C@@H](CCCNC(=N)N)C(=O)N[C@@H](CCC(=O)O)C(=O)N[C@@H](Cc1ccccc1)C(=O)N[C@H](C(=O)N[C@@H](CCC(N)=O)C(=O)N[C@@H](Cc1c[nH]c2ccccc12)C(=O)N[C@@H](CC(C)C)C(=O)N[C@@H](CC(C)C)C(=O)N[C@@H](CCCCNC(=O)CC[C@H](NC(=O)CC[C@H](NC(=O)COCCOCCNC(=O)COCCOCCNC(=O)CC[C@H](NC(=O)CCCCCCCCCCCCCCCCC(=O)O)C(=O)O)C(=O)O)C(=O)O)C(=O)N[C@H](C(N)=O)[C@@H](C)O)C(C)C [Example 44, N^ε28-[(4S)-4-carboxy-4-[[(4S)-4-carboxy-4-[[2-[2-[2-[[2-[2-[2-[[(4S)-4-carboxy-4-(17-carboxyheptadecanoylamino)butanoyl]amino]ethoxy]ethoxy]acetyl]amino]ethoxy]ethoxy]acetyl]amino]butanoyl]amino]butanoyl]-[Acb2,Leu10,Glu15,Arg20,Glu21,Leu27,Lys28]-Glucagon amide] (H-H[Ac4c]QGTFTSDLSKYLESRRAREFVQWLLK([γGlu-γGlu-AEEA-AEEA-γGlu-C18 diacid])T-NH2; N-terminus assumed) | 2 | 0.3

The remaining compounds from weak to strong by IC50 (human GLP-1 receptor), led by results:

Row | Purity loss; 14 days at 37° C. [1] [%] | IC50 (human GLP-1 receptor) [nM] | Structure (SMILES)
4 | 1 | 1.1 | CC(C)C[C@H](NC(=O)[C@H](CC(=O)O)NC(=O)[C@H](CC(C)C)NC(=O)[C@H](Cc1ccc(O)cc1)NC(=O)[C@H](CCCNC(=N)N)NC(=O)[C@H](CO)NC(=O)[C@H](CC(C)C)NC(=O)[C@H](CC(=O)O)NC(=O)[C@H](CO)NC(=O)[C@@H](NC(=O)[C@H](Cc1ccccc1)NC(=O)[C@@H](NC(=O)CNC(=O)[C@H](CCC(N)=O)NC(=O)C1(NC(=O)[C@@H](N)Cc2c[nH]cn2)CCC1)[C@@H](C)O)[C@@H](C)O)C(=O)N[C@@H](CCCNC(=N)N)C(=O)N[C@@H](CCCNC(=N)N)C(=O)N[C@@H](C)C(=O)N[C@@H](CCCNC(=N)N)C(=O)N[C@@H](CC(=O)O)C(=O)N[C@@H](Cc1ccccc1)C(=O)N[C@H](C(=O)N[C@@H](CCC(N)=O)C(=O)N[C@@H](Cc1c[nH]c2ccccc12)C(=O)N[C@@H](CC(C)C)C(=O)N[C@@H](CC(C)C)C(=O)N[C@@H](CCCCNC(=O)CC[C@H](NC(=O)CC[C@H](NC(=O)COCCOCCNC(=O)COCCOCCNC(=O)CC[C@H](NC(=O)CC[C@H](NC(=O)CCCCCCCCCCCCCCCCC(=O)O)C(=O)O)C(=O)O)C(=O)O)C(=O)O)C(=O)N[C@H](C(N)=O)[C@@H](C)O)C(C)C [Example 46, N^ε28-[(4S)-4-carboxy-4-[[(4S)-4-carboxy-4-[[2-[2-[2-[[2-[2-[2-[[(4S)-4-carboxy-4-[[(4S)-4-carboxy-4-(17-carboxyheptadecanoylamino)butanoyl]amino]butanoyl]amino]ethoxy]ethoxy]acetyl]amino]ethoxy]ethoxy]acetyl]amino]butanoyl]amino]butanoyl]-[Acb2,Leu10,Arg12,Leu16,Arg20,Leu27,Lys28]-Glucagon amide] (H-H[Ac4c]QGTFTSDLSRYLDLRRARDFVQWLLK([γGlu-γGlu-AEEA-AEEA-γGlu-γGlu-C18 diacid])T-NH2; N-terminus assumed)
5 | 3 | 0.4 | CC(C)C[C@H](NC(=O)[C@H](CC(=O)O)NC(=O)[C@H](CC(C)C)NC(=O)[C@H](Cc1ccc(O)cc1)NC(=O)[C@H](CCCCN)NC(=O)[C@H](CO)NC(=O)[C@H](CC(C)C)NC(=O)[C@H](CC(=O)O)NC(=O)[C@H](CO)NC(=O)[C@@H](NC(=O)[C@H](Cc1ccccc1)NC(=O)[C@@H](NC(=O)CNC(=O)[C@H](CCC(N)=O)NC(=O)C1(NC(=O)[C@@H](N)Cc2c[nH]cn2)CCC1)[C@@H](C)O)[C@@H](C)O)C(=O)N[C@@H](CCCNC(=N)N)C(=O)N[C@@H](CCCNC(=N)N)C(=O)N[C@@H](C)C(=O)N[C@@H](CCCNC(=N)N)C(=O)N[C@@H](CC(=O)O)C(=O)N[C@@H](Cc1ccccc1)C(=O)N[C@H](C(=O)N[C@@H](CCC(N)=O)C(=O)N[C@@H](Cc1c[nH]c2ccccc12)C(=O)N[C@@H](CC(C)C)C(=O)N[C@@H](CC(C)C)C(=O)N[C@@H](CCCCNC(=O)CC[C@H](NC(=O)CC[C@H](NC(=O)COCCOCCNC(=O)COCCOCCNC(=O)CC[C@H](NC(=O)CC[C@H](NC(=O)CCCCCCCCCCCCCCCCC(=O)O)C(=O)O)C(=O)O)C(=O)O)C(=O)O)C(=O)N[C@H](C(N)=O)[C@@H](C)O)C(C)C [Example 45, N^ε28-[(4S)-4-carboxy-4-[[(4S)-4-carboxy-4-[[2-[2-[2-[[2-[2-[2-[[(4S)-4-carboxy-4-[[(4S)-4-carboxy-4-(17-carboxyheptadecanoylamino)butanoyl]amino]butanoyl]amino]ethoxy]ethoxy]acetyl]amino]ethoxy]ethoxy]acetyl]amino]butanoyl]amino]butanoyl]-[Acb2,Leu10,Leu16,Arg20,Leu27,Lys28]-Glucagon amide] (H-H[Ac4c]QGTFTSDLSKYLDLRRARDFVQWLLK([γGlu-γGlu-AEEA-AEEA-γGlu-γGlu-C18 diacid])T-NH2; N-terminus assumed)
